Measured values: US8389523B2, “Substituted quinoxaline and an agrochemical composition thereof” (Kumiai Chemical Industry Co., Ltd., priority 2007, dated 2013)

Assays:
Assay type in all cases: in vivo
Design in all cases: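 grade 0 to 5 of growth suppression where 5 is 90% or more and 0 below 10%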
[1] = test system: Abutilon theophrasti medicus; assay: Herbicidal effects in upland field foliar treatment (Test Example 3); conditions: 1000 g of the active ingredient per hectare, 14th day after the treatment, wettable powder, criteria of Table 138
Summary of the method: (§1)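 Weeds were sown in upland field soil and grown two weeks in a greenhouse before a foliar spray over the whole plant. Wettable powder was diluted in water and applied at 1000 L/ha, delivering 1000 g active ingredient/ha. Herbicidal effect was scored against set rating criteria 14 days after treatment.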

Amaranthus viridis L. [2] = assay: as above; conditions: 1000 g of the active ingredient per hectare, 14th day after the treatment, wettable powder, criteria of Table 138
Summary of the method: as §1

[3] = test system: Echinochloa crus-galli (L.) P. Beauv. var. crus-galli; assay: as above; conditions: 1000 g of the active ingredient per hectare, 14th day after the treatment, wettable powder, criteria of Table 138
Summary of the method: as §1

[4] = test system: Abutilon theophrasti medicus; assay: Herbicidal effects in upland field soil treatment (Test Example 2); conditions: 1000 g active ingredient per hectare, 21st day after treatment, criteria of Table 138
Summary of the method: (§2)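 Pre-emergence soil application: seeds sown in upland field soil, covered, then wettable powder diluted in water sprayed on the soil surface at 1000 g active ingredient/ha in 1000 L/ha. Plants grown in greenhouse; herbicidal effect scored on a rating scale 21 days after treatment.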

Amaranthus viridis L. [5] = assay: as above; conditions: 1000 g active ingredient per hectare, 21st day after treatment, criteria of Table 138
Summary of the method: as §2

[6] = test system: Monochoria vaginalis (Burm. f.) Presl var. plantaginea (Roxb.) Solms-Laub.; assay: Herbicidal effects in paddy field soil treatment (Test Example 1); conditions: paddy field soil treatment; 1000 g of the active ingredient per hectare; wettable powder added dropwise on water surface; 21st day after treatment
Summary of the method: (§3)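 Weed seeds were sown into puddled, leveled paddy soil in pots and flooded to 3 cm water depth. One day later the diluted wettable powder formulation was dropped onto the water surface at 1000 g active ingredient per hectare. Herbicidal effect was scored on day 21 after greenhouse growth.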

[7] = test system: Echinochloa oryzicola Vasing; assay: as above; conditions: paddy field soil treatment; 1000 g of the active ingredient per hectare; wettable powder added dropwise on water surface; 21st day after treatment
Summary of the method: as §3

[8] = test system: Scirpus juncoides Roxb. var. ohwianus. T. Koyama; assay: as above; conditions: paddy field soil treatment; 1000 g of the active ingredient per hectare; wettable powder added dropwise on water surface; 21st day after treatment
Summary of the method: as §3

| SMILES | herbicidal effects on Abutilon theophrasti medicus [1] | herbicidal effects on Amaranthus viridis L. (Amaranthus viridis L. [2]) | herbicidal effects on Echinochloa crus-galli (L.) P. Beauv. var. crus-galli [3] | herbicidal effect (index) on Abutilon theophrasti medicus [4] | herbicidal effect (index) on Amaranthus viridis L. (Amaranthus viridis L. [5]) | Herbicidal effects index, Monochoria vaginalis (Burm. f.) Presl var. plantaginea (Roxb.) Solms-Laub. [6] | Herbicidal effects index, Echinochloa oryzicola Vasing [7] | Herbicidal effects index, Scirpus juncoides Roxb. var. ohwianus. T. Koyama [8] |
| --- | --- | --- | --- | --- | --- | --- | --- | --- |
| COc1c(Cl)cc(-n2c(=O)c(C(=O)C3=C(O)CCCC3=O)nc3ccccc32)cc1Cl [II-221] | 5 | 5 | 5 | 4 | 5 | 5 | 4 | 5 |
| O=C1CCCC(O)=C1C(=O)c1nc2ccccc2n(-c2ccc3c(c2)CCC3)c1=O [II-222] | 5 | 5 | 5 | 5 | 5 | 5 | 5 | 5 |
| O=C1CCCC(O)=C1C(=O)c1nc2ccccc2n(-c2ccc3c(c2)CCCC3)c1=O [II-223] | 5 | 5 | 5 | 4 | 5 | 5 | 5 | 5 |
| O=C1CCCC(O)=C1C(=O)c1nc2ccccc2n(-c2ccc3c(c2)COC3)c1=O [II-224] | 5 | 5 | 5 | 5 | 5 | 5 | 4 | 5 |
| O=C1CCCC(O)=C1C(=O)c1nc2ccc(F)cc2n(-c2ccc3c(c2)OCO3)c1=O [II-225] | 5 | 5 | 5 | 5 | 5 | 5 | 5 | 5 |
| O=C1CCCC(O)=C1C(=O)c1nc2ccccc2n(-c2cccc3c2OCCO3)c1=O [II-226] | 5 | 5 | 5 | 5 | 5 | 5 | 5 | 5 |
| CC1(C)CCC(=O)C(C(=O)c2nc3ccccc3n(-c3ccc4c(c3)OCCO4)c2=O)=C1O [II-227] | 4 | 5 | 5 | 5 | 5 | 5 | 5 | 5 |
| CC1(C)CC(=O)C(C(=O)c2nc3ccccc3n(-c3ccc4c(c3)OCCO4)c2=O)=C(O)C1 [II-228] | 5 | 5 | 5 | 5 | 5 | 5 | 5 | 5 |
